# Data taken from patent publication US20200038418A1, “METHODS OF TREATING AUTISM SPECTRUM DISORDER USING AMINOSTEROL COMPOSITIONS” (Enterin, Inc., priority 2018, published 2020).
# Tests used:
# [1] = Phase 2 trial Stage 2, adverse events; format: in vivo, human
# Method: In Stage 2, 34 patients were evaluated.
# [2] = Phase 2 trial Stage 1, adverse events; format: in vivo, human; conditions: Stage 1 (10 dosed), single oral doses
# Excerpt: Tolerability limits included diarrhea or vomiting.
# Solubility in water = format: physicochemical; conditions: pH<3.5 (the pH of gastric fluid)
# αS = αS (Homo sapiens, UniProt P37840); conditions: in vitro; cited from earlier work
# C. elegans model of PD = C. elegans model of PD in vivo; cited from earlier work
# [3] = tested on: patients with PD and constipation; experiment: Stage 2 CNS symptoms (UPDRS, MMSE, PDHQ, BDI-II); format: in vivo, human; conditions: for UPDRS Part 1 (NMS) (Mean, SD) / BDI-II (Mean, SD) / PDHQ (Mean, SD): n = 34; for hallucinations and delusions improved or disappeared: during treatment, patients with hallucinations or delusions at baseline
# Excerpt: (9) Unified Parkinson's Disease Rating Scale (UPDRS), which consists of 42 items in four subscales (Part I=Non-Motor Aspects of Experiences of Daily Living (nM-EDL) (1.1 cognitive impairment, 1.2 hallucinations and psychosis, 1.3 depressed mood, Part II=Motor Aspects of Experiences of Daily Living (M-EDL), Part III=Motor Examination, and Part IV=Motor Complications;
# Exploratory end-points, in addition to constipation, included for example, (i) depression assessed using the Beck Depression Inventory (BDI-II) (Steer et al. 2000) and Unified Parkinson's Disease Rating Scale (UPDRS); (ii) cognition assessed using the Mini Mental State Examination (MMSE) (Palsteia et al., 2018), Unified Parkinson's Disease Rating Scale (UPDRS), and Trail Making Test (TMT); (iii) sleep and REM-behavior disorder (RBD) using a daily sleep diary, I-Button Temperature Assessment, a REM sleep behavior disorder (RBD) questionnaire (RBDQ) (Stiasny-Kolster et al. 2007), and the UPDRS; (iv) hallucinations assessed using the PD hallucinations questionnaire (PDHQ) (Papapetropoulos et al. 2008), the UPDRS, and direct questioning; (v) fatigue using the Parkinson's Disease Fatigue Scale (PFS-16) and the UPDRS; (vi) motor functions using the UPDRS; and (vii) non-motor functions using the UPDRS.
# Assessments were made at baseline and at the end of the fixed dose and washout periods. Circadian system status was evaluated by continuously monitoring wrist skin temperature (Thermochron iButton DS1921H; Maxim, Dallas) following published procedures (Sarabia et al. 2008).
# An exploratory analysis was done with respect to the sleep data, the body temperature data, mood, fatigue, hallucinations, cognition and other motor and non-motor symptoms of PD. Continuous measurements within a subject were compared with a paired t-test and continuous measurements between subject groups were compared with a two-group t-test. Categorical data were compared with a chi-squared test or a Fisher's exact test if the expected cell counts are too small for a chi-squared test.
# [4] = Stage 2 (34 dosed), daily oral dosing
# [5] = Stage 2 (34 dosed), daily oral dosing, unrelated to ENT-01
# [6] = Stage 2, fixed dose (during treatment)
# [7] = Stage 2, fixed dose (during treatment), listed as Squalamine (ENT-01)
# [8] = Stage 2, wash-out, listed as Squalamine (ENT-01)
smiles,measurement,setting,value
"CC(C)[C@@H](CC[C@@H](C)[C@H]1CC[C@H]2[C@@H]3[C@H](O)C[C@H]4C[C@@H](NCCCNCCCCN)CC[C@]4(C)[C@H]3CC[C@]12C)OS(=O)(=O)O (single isomer, unassigned) [squalamine (ENT-01), squalamine]","Abdominal pain, Mild",[1]; [4],"4(11.7) n, %"
same,"Abdominal pain, Moderate",[1]; [4],"2(5.8) n, %"
same,"Blood in urine, Moderate",[1]; [4],"0 n, %"
same,"Diarrhea, Mild",[1]; [4],"12(35) n, %"
same,"Diarrhea, Moderate",[1]; [4],"2(5.8) n, %"
same,"Diarrhea, Severe",[1]; [4],"1(2.9) n, %"
same,"Difficulty falling asleep, Mild",[1]; [4],"1(3) n, %"
same,"Difficulty falling asleep, Moderate",[1]; [4],"0 n, %"
same,"Dizziness, Mild",[1]; [4],"7(20.5) n, %"
same,"Dizziness, Moderate",[1]; [4],"1(2.9) n, %"
same,"Eye infection, Mild",[1]; [4],"1(3) n, %"
same,"Eye infection, Moderate",[1]; [4],"0 n, %"
same,"Flatulence, Mild",[1]; [4],"1(3) n, %"
same,"Flatulence, Moderate",[1]; [4],"0 n, %"
same,"Headache, Mild",[1]; [4],"3(8.8) n, %"
same,"Headache, Moderate",[1]; [4],"0 n, %"
same,"Increased urinary frequency, Mild",[1]; [4],"2(5.8) n, %"
same,"Increased urinary frequency, Moderate",[1]; [4],"0 n, %"
same,"Loss of appetite, Moderate",[1]; [4],"0 n, %"
same,"Nausea, Mild",[1]; [4],"18(52) n, %"
same,"Nausea, Moderate",[1]; [4],"1(2.9) n, %"
same,"Skin lesions-rash, Mild",[1]; [4],"3(8.8) n, %"
same,"Skin lesions-rash, Moderate",[1]; [4],"0 n, %"
same,"Urinary retention, Mild",[1]; [4],"1(3) n, %"
same,"Urinary retention, Moderate",[1]; [4],"0 n, %"
same,"Urinary tract infection, Mild",[1]; [4],"1(3) n, %"
same,"Urinary tract infection, Moderate",[1]; [4],"2(5.8) n, %"
same,"Vomiting, Mild",[1]; [4],"2(5.8) n, %"
same,"Vomiting, Moderate",[1]; [4],"0 n, %"
same,"Worsening acid reflux, Mild",[1]; [4],"4(11.7) n, %"
same,"Worsening acid reflux, Moderate",[1]; [4],"0 n, %"
same,"Worsening hemorrhoid, Mild",[1]; [4],"1(3) n, %"
same,"Worsening hemorrhoid, Moderate",[1]; [4],"0 n, %"
same,"Blood in urine, Mild",[1]; [5],"0 n, %"
same,"Loss of appetite, Mild",[1]; [5],"0 n, %"
same,"Lower GI bleed, Severe","[1]; Stage 2, daily oral dosing, colonic diverticulosis, polyp, patient on aspirin, Plavix and naproxen, unrelated to ENT-01","1(2.5) n, %"
same,"Abdominal pain, Mild",[2],"2(20) n, %"
same,"Abdominal pain, Moderate",[2],"3(30) n, %"
same,"Blood in urine, Moderate",[2],"0 n, %"
same,"Diarrhea, Mild",[2],"1(10) n, %"
same,"Diarrhea, Moderate",[2],"3(30) n, %"
same,"Diarrhea, Severe",[2],"0 n, %"
same,"Difficulty falling asleep, Mild",[2],"0 n, %"
same,"Difficulty falling asleep, Moderate",[2],"0 n, %"
same,"Dizziness, Mild",[2],"0 n, %"
same,"Dizziness, Moderate",[2],"0 n, %"
same,"Eye infection, Mild",[2],"0 n, %"
same,"Eye infection, Moderate",[2],"0 n, %"
same,"Flatulence, Mild",[2],"2(20) n, %"
same,"Flatulence, Moderate",[2],"0 n, %"
same,"Headache, Mild",[2],"1(10) n, %"
same,"Headache, Moderate",[2],"0 n, %"
same,"Increased urinary frequency, Mild",[2],"0 n, %"
same,"Increased urinary frequency, Moderate",[2],"0 n, %"
same,"Loss of appetite, Moderate",[2],"0 n, %"
same,"Lower GI bleed, Severe",[2],"0 n, %"
same,"Nausea, Mild",[2],"4(40) n, %"
same,"Nausea, Moderate",[2],"0 n, %"
same,"Skin lesions-rash, Mild",[2],"0 n, %"
same,"Skin lesions-rash, Moderate",[2],"0 n, %"
same,"Urinary retention, Mild",[2],"0 n, %"
same,"Urinary retention, Moderate",[2],"0 n, %"
same,"Urinary tract infection, Mild",[2],"0 n, %"
same,"Urinary tract infection, Moderate",[2],"0 n, %"
same,"Vomiting, Mild",[2],"1(10) n, %"
same,"Vomiting, Moderate",[2],"0 n, %"
same,"Worsening acid reflux, Mild",[2],"0 n, %"
same,"Worsening acid reflux, Moderate",[2],"0 n, %"
same,"Worsening hemorrhoid, Mild",[2],"0 n, %"
same,"Worsening hemorrhoid, Moderate",[2],"0 n, %"
same,"Blood in urine, Mild",[2]; unrelated to ENT-01,"1(10) n, %"
same,"Loss of appetite, Mild",[2]; unrelated to ENT-01,"1(10) n, %"
same,dissolution,Solubility in water,readily dissolves
same,formation of aggregates of αS,αS,inhibit the formation of aggregates of αS
same,formation of aggregates of αS,C. elegans model of PD,inhibit the formation of aggregates of αS
same,time hallucinations and delusions did not return following discontinuation,[3]; 1 patient,4 weeks
same,"UPDRS Part 1 (NMS) (Mean, SD)","[3]; Stage 2, end of fixed dose",10.6 (6.18))
same,"UPDRS Part 1 (NMS) (Mean, SD)","[3]; Stage 2, end of wash-out",9.5 (5.27)
same,"UPDRS Part 1 (NMS) (Mean, SD)","[3]; Stage 2, end of wash-out, listed as aminosterol",9.5
same,"BDI-II (Mean, SD)",[3]; [6],9.9
same,"PDHQ (Mean, SD)",[3]; [6],1.8
same,"BDI-II (Mean, SD)",[3]; [7],9.9 (6.45)
same,"PDHQ (Mean, SD)",[3]; [7],1.8 (3.34)
same,"BDI-II (Mean, SD)","[3]; Stage 2, fixed dose (during treatment), listed as aminosterol",9.9
same,"BDI-II (Mean, SD)","[3]; Stage 2, wash-out",8.7
same,"PDHQ (Mean, SD)","[3]; Stage 2, wash-out",0.9
same,"BDI-II (Mean, SD)",[3]; [8],8.7 (5.19)
same,"PDHQ (Mean, SD)",[3]; [8],0.9 (2.33)
same,"BDI-II (Mean, SD)","[3]; Stage 2, wash-out, listed as aminosterol",8.7
same,time hallucinations and delusions did not return following discontinuation,[3]; another patient,2 weeks
same,hallucinations and delusions improved or disappeared,[3],5 of 6
same,hallucinations and delusions improved or disappeared,[3]; listed as ENT-01,five
